Structures are written as SMILES. Activity calls are given as the source filed them. No cut-off for these calls is given here. A value given as a limit tells only on which side of the number the result lay.

For orientation: IC50 means the point on the concentration scale where inhibition reaches its midpoint.

The target in one data set is Cholinesterase (Homo sapiens, UniProt P06276).
The target of data set [1] is T1, Acetylcholinesterase (Homo sapiens, UniProt P22303). As to the kind of experiment: Inhibition of human recombinant AChE using acetylthiocholine iodide as substrate preincubated for 5 mins followed by substrate addition by Ellman's method. Background: Ellman's reagent forms a yellow product with free thiols.
A further data set is filed under the species Homo sapiens. Nature of the data set: Selectivity ratio of IC50 for human serum BuChE to IC50 for human recombinant AChE.
A short description of data set [2]: Antioxidant activity assessed as trolox equivalent of AAPH radical scavenging activity preincubated for 15 mins followed by addition of AAPH solution measured for 80 mins by ORAC-FL method. It is filed as physicochemical.
Data set [3] concerns SH-SY5Y. As to the kind of experiment: Cytotoxicity against human SH-SY5Y cells assessed as cell survival at 1 to 50 uM after 24 hrs by MTT assay. It is filed as cell-based.
Data set [4] deals with T1, Acetylcholinesterase. The note with it: 0.05 to 0.2 uM.
Data set [5] has as its system SH-SY5Y. Nature of the data set: Neuroprotective activity against H2O2-induced oxidative stress-associated death in human SH-SY5Y cells assessed as increase in cell viability at 1 to 10 uM incubated for 24 hrs prior to H2O2 challenge measured after 24 hrs by MTT assay. Format: functional, cell-based. Background: Tetrazolium dyes change colour on reduction, which living cells bring about.

Data set [6] is described as follows: Antioxidant activity assessed as trolox equivalent of AAPH radical scavenging activity. Format: physicochemical.
For data set [7], the system named is SH-SY5Y. Nature of the data set: Neuroprotective activity against H2O2-induced oxidative stress-associated death in human SH-SY5Y cells assessed as increase in cell viability at 10 uM incubated for 24 hrs prior to H2O2 challenge measured after 24 hrs by MTT assay. It is filed as functional, cell-based.
In data set [8] the target is T1, Acetylcholinesterase. As to the kind of experiment: Potency index, ratio of IC50 for donepezil to IC50 for test compound for inhibition of human recombinant AChE.

Sequence of Cholinesterase (P06276 whole entry): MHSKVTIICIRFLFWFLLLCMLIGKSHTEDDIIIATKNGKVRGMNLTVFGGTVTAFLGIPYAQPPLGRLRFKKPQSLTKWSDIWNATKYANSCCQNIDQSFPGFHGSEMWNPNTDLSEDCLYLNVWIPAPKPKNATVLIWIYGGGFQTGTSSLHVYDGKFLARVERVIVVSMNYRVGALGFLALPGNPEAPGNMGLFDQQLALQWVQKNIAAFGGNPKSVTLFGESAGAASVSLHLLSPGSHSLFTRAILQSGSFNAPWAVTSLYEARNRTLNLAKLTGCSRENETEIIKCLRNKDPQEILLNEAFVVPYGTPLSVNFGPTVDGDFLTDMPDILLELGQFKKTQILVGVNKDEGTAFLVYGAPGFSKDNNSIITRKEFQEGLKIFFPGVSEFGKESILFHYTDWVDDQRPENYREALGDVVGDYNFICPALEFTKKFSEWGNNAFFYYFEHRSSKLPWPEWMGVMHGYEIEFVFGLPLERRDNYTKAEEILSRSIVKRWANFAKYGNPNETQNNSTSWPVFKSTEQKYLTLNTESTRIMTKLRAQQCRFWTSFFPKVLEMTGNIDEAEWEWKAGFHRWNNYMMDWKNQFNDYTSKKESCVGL
T1 sequence (P22303 whole entry): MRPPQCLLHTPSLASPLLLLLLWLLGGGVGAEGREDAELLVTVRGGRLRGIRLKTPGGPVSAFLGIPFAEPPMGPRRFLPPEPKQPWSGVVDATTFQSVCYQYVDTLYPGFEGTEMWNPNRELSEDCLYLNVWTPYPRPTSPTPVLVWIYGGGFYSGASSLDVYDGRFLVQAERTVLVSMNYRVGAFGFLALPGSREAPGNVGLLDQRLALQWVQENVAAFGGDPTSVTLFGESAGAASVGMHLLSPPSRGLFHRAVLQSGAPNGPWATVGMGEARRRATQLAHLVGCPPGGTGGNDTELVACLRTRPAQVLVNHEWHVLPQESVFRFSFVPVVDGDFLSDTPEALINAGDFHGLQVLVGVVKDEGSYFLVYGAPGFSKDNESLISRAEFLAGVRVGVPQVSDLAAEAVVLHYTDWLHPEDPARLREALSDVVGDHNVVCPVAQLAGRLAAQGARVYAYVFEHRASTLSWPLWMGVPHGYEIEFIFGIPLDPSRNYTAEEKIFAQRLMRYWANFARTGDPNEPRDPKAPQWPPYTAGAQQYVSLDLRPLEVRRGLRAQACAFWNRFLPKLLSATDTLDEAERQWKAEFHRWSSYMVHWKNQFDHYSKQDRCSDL

With `O=C(NCCc1c[nH]c2ccccc12)c1cc[n+](Cc2cccc(F)c2)cc1.[Br-]`, the IC50 against Cholinesterase turned out to be 5.1 µM; at Acetylcholinesterase [1], 3.9 µM. Also, in the data set filed under Homo sapiens, the Ratio IC50 came out at 1.3. For the same compound, in data set [2], the Activity came to 1.41 umolequiv/umol.

Turning to `COc1ccc2[nH]cc(CCNC(=O)/C=C/c3cc[n+](Cc4ccccc4F)cc3)c2c1.[Br-]`, the IC50 was found to be 2.3 µM at Cholinesterase and 0.26 µM at Acetylcholinesterase [1]. The Ratio IC50 in the data set listed under Homo sapiens is 8.8. Moreover, the Activity in [2] came out at 3.66 umolequiv/umol.

On to `Cc1cccc(C[n+]2ccc(C(=O)NCCc3c[nH]c4ccccc34)cc2)c1.[Br-]`, for which the IC50 stood at 5.8 µM against Cholinesterase and 2.7 µM at Acetylcholinesterase [1]. In addition, in the data set filed under Homo sapiens, the Ratio IC50 amounted to 2.1. The Activity in data set [2] is given as 1.36 umolequiv/umol.

As for `O=C(NCCc1c[nH]c2ccccc12)c1ccc[n+](Cc2ccccc2F)c1.[Br-]`, the IC50 on Cholinesterase turned out to be 0.34 µM; on Acetylcholinesterase [1], 28.6 µM. In addition, in the data set filed under Homo sapiens, the Ratio IC50 came to 0.01. For the same compound, the Activity in data set [2] stood at 1.47 umolequiv/umol.

As to `O=C(NCCc1c[nH]c2ccccc12)c1cc[n+](Cc2ccccc2)cc1.[Br-]`, the IC50 on Cholinesterase was 2.8 µM; at Acetylcholinesterase [1], 4.2 µM. For the same compound, the Ratio IC50 in the data set filed under Homo sapiens was 0.67. Also, the Activity in data set [2] was 1.29 umolequiv/umol.

Consider `COc1ccc2[nH]cc(CCNC(=O)c3cc[n+](Cc4cccc(F)c4)cc3)c2c1.[Br-]`, for which the IC50 was 7.9 µM against Cholinesterase and 3.8 µM at Acetylcholinesterase [1]. Further, the Ratio IC50 in the data set listed under Homo sapiens is 2.1. Further, the Activity in data set [2] was 1.87 umolequiv/umol.

In the case of `COc1ccc2[nH]cc(CCNC(=O)/C=C/c3cc[n+](Cc4cccc(F)c4)cc3)c2c1.[Br-]`, the Activity entry is reported as “Non-toxic” with SH-SY5Y [3] and 3.41 umolequiv/umol in data set [2]. Further, the IC50 was determined as 1.1 µM at Cholinesterase and 0.11 µM at Acetylcholinesterase [1]. Also, the inhibition entry on Acetylcholinesterase [4] is “Active”. In addition, in the data set on SH-SY5Y [5], the outcome was Active. In the data set filed under Homo sapiens, the Ratio IC50 was determined as 10.

Consider `COc1ccc2[nH]cc(CCNC(C)=O)c2c1` [MELATONIN], for which the Activity in [6] is given as 2 umolequiv/umol; in [2] it was 2.34 umolequiv/umol. Besides, the outcome in the data set on SH-SY5Y [7] was Active.

Consider `Cc1ccc(C[n+]2ccc(C(=O)NCCc3c[nH]c4ccccc34)cc2)cc1.[Br-]`, for which the IC50 was 8.9 µM against Cholinesterase and 5.7 µM on Acetylcholinesterase [1]. The Ratio IC50 in the data set filed under Homo sapiens was determined as 1.6. The Activity in [2] worked out at 1.72 umolequiv/umol.

With `O=C(NCCc1c[nH]c2ccccc12)c1cc[n+](Cc2ccc(F)cc2)cc1.[Br-]`, the IC50 is 4.8 µM at Cholinesterase and 3.4 µM at Acetylcholinesterase [1]. Besides, the Ratio IC50 in the data set listed under Homo sapiens came to 1.4. Also, the Activity in data set [2] worked out at 1.32 umolequiv/umol.

In the case of `COc1ccc2[nH]cc(CCNC(=O)CCc3cc[n+](Cc4cccc(F)c4)cc3)c2c1.[Br-]`, the IC50 was 0.72 µM on Cholinesterase and 0.44 µM on Acetylcholinesterase [1]. Besides, the Ratio IC50 in the data set listed under Homo sapiens was found to be 1.6. The Activity in [2] is on record as 2.45 umolequiv/umol.

With `COc1ccc2[nH]cc(CCNC(=O)c3cc[n+](Cc4ccc(OC(=O)N(C)C)cc4)cc3)c2c1.[Br-]`, the figures for the Activity result (in the data set on SH-SY5Y [3]; in data set [2]) were “Non-toxic” and 2.04 umolequiv/umol, respectively. Besides, the IC50 is 0.08 µM at Cholinesterase and 1.3 µM at Acetylcholinesterase [1]. Besides, the result in the data set with SH-SY5Y [5] was Active. Besides, the Ratio IC50 came out at 70 on Acetylcholinesterase [8] and 0.06 in the data set filed under Homo sapiens.

Consider `COc1ccc2[nH]cc(CCNC(=O)CCc3cc[n+](Cc4ccc(F)cc4)cc3)c2c1.[Br-]`, for which the IC50 against Cholinesterase was found to be 0.65 µM; at Acetylcholinesterase [1], 0.58 µM. In addition, in the data set filed under Homo sapiens, the Ratio IC50 was found to be 1.1. In data set [2], the Activity came out at 2.49 umolequiv/umol.

Take `COc1ccc2[nH]cc(CCNC(=O)c3cc[n+](Cc4ccccc4F)cc3)c2c1.[Br-]`: the figures for the IC50 at Cholinesterase and at Acetylcholinesterase [1] were 6.8 µM and 3.3 µM, respectively. Further, the Ratio IC50 in the data set listed under Homo sapiens stood at 2.1. For the same compound, the Activity in data set [2] amounted to 2.02 umolequiv/umol.

For the compound `O=C(NCCc1c[nH]c2ccccc12)c1ccc[n+](Cc2ccccc2)c1.[Br-]`, the half-maximal inhibitory concentration (IC50) came to 0.28 µM on Cholinesterase and 30.5 µM on Acetylcholinesterase [1]. Also, the Ratio IC50 in the data set listed under Homo sapiens turned out to be 0.009. In data set [2], the Activity is 1.49 umolequiv/umol.

In the case of `N#Cc1ccc(C[n+]2ccc(C(=O)NCCc3c[nH]c4ccccc34)cc2)cc1.[Br-]`, the IC50 on Acetylcholinesterase [1] amounted to 22.9 µM. Further, in the data set listed under Homo sapiens, the Ratio IC50 is more than 4.4. For the same compound, in data set [2], the Activity was found to be 1.56 umolequiv/umol.

In the case of `COc1ccc2[nH]cc(CCNC(=O)/C=C/c3cc[n+](Cc4ccc(F)cc4)cc3)c2c1.[Br-]`, the IC50 was 0.71 µM against Cholinesterase and 0.21 µM on Acetylcholinesterase [1]. Moreover, the Ratio IC50 in the data set filed under Homo sapiens was 3.4. The Activity in [2] was determined as 3.51 umolequiv/umol.

For the compound `O=C(NCCc1c[nH]c2ccccc12)c1cc[n+](Cc2ccccc2F)cc1.[Br-]`, the IC50 came to 4.1 µM on Cholinesterase and 3.2 µM on Acetylcholinesterase [1]. In the data set filed under Homo sapiens, the Ratio IC50 came to 1.3. The Activity in [2] was determined as 1.14 umolequiv/umol.

Take `COc1ccc2[nH]cc(CCNC(=O)CCc3cc[n+](Cc4ccccc4F)cc3)c2c1.[Br-]`: the IC50 worked out at 0.86 µM against Cholinesterase and 0.53 µM at Acetylcholinesterase [1]. In the data set listed under Homo sapiens, the Ratio IC50 worked out at 1.6. Besides, the Activity in [2] is 2.51 umolequiv/umol.

For the compound `COc1ccc2[nH]cc(CCNC(=O)c3cc[n+](Cc4ccc(F)cc4)cc3)c2c1.[Br-]`, the IC50 at Cholinesterase stood at 7.5 µM; on Acetylcholinesterase [1], 5.1 µM. In the data set listed under Homo sapiens, the Ratio IC50 came to 1.5. In data set [2], the Activity is 2.09 umolequiv/umol.

These data come from ChEMBL document CHEMBL3627616, “New multifunctional melatonin-derived benzylpyridinium bromides with potent cholinergic, antioxidant, and neuroprotective properties as innovative drugs for Alzheimer's disease” (Eur J Med Chem, 2015).
